Measured values as given in PMC10729476, “Functional characterization of four opsins and two G alpha subtypes co-expressed in the molluscan rhabdomeric photoreceptor” (BMC Biology, 2023).

Key:
Limax xenopsin = target: T1, Limax xenopsin (Ambigolimax valentianus, UniProt A0A455SJK2); assay: UV-VIS absorption spectroscopy of reconstituted purified pigment; type: binding; settings: chromophore added to expressing cells; covalent (retinylidene Schiff base to conserved Lys, general for opsins); 1% dodecyl maltoside extraction; 4 °C
T1 construct: wild-type xenopsin in pMT vector, C-terminal rho 1D4 tag (ETSQVAPA; tag stated, 1D4 purification), HEK293S cells, extracted in dodecyl maltoside
T1 sequence (A0A455SJK2 1-421): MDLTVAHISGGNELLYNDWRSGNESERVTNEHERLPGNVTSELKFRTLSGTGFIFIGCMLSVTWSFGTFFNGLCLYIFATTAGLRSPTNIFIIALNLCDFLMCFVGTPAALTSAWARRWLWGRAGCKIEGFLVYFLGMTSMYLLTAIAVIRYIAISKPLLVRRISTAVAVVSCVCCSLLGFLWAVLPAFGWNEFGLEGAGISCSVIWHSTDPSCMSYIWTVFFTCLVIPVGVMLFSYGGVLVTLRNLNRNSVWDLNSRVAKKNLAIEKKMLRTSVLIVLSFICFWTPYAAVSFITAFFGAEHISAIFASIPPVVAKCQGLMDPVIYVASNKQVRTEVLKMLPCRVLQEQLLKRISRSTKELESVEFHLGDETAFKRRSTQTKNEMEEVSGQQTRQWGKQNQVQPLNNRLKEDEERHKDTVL

Limax Opn5A = target: T2, Limax Opn5A (Ambigolimax valentianus, UniProt A0A455SGG5); assay: as above; type: binding; settings: chromophore added to expressing cells; covalent (retinylidene Schiff base to conserved Lys, general for opsins); 1% dodecyl maltoside extraction; 4 °C; low expression, impurities, spectrum fitted with
T2 construct: wild-type Opn5A in pMT vector, C-terminal rho 1D4 tag (ETSQVAPA; tag stated, 1D4 purification), HEK293S cells, extracted in dodecyl maltoside
T2 sequence (A0A455SGG5 1-425): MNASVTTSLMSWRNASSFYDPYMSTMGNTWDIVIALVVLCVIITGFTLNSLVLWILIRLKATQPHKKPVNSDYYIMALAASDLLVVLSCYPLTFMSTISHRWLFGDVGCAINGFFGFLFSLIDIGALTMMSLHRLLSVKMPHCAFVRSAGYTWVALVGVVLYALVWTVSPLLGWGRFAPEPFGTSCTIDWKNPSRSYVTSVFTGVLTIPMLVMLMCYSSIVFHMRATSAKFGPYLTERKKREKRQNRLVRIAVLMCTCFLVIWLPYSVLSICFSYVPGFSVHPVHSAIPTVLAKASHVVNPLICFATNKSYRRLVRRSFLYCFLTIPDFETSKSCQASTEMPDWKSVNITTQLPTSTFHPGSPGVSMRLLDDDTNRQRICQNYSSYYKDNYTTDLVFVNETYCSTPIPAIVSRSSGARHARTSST

CC1=C(/C=C/C(C)=C/C=C\C(C)=C\C=O)C(C)(C)CCC1 [11-cis retinal]
UV-VIS absorption spectroscopy of reconstituted purified pigment (Limax xenopsin): After the addition of the 11-cis retinal, opsin-based pigments were extracted | UV-VIS absorption spectroscopy of reconstituted purified pigment (Limax Opn5A): After the addition of the 11-cis retinal, opsin-based pigments were extracted
